pEC50: −log10 of the molar value.

The source of these data is BindingDB's records for doi:10.1016/j.ejmech.2021.113204 (Shandong University, 2021).

The first test is described as follows: Inhibition of reverse transcriptase L100I mutant in HIV-1 infected in human MT4 cells assessed as reduction in virus-induced cytopathic effect incubated for 5 days by MTT assay. In general terms: Damage to the host cells serves as the signal in cytopathic effect assays.
In general, pEC50 refers to the negative decadic logarithm of the EC50, by convention in mol/L. Regarding `Cc1cc(/C=C/C#N)cc(C)c1Oc1nc(Nc2ccc(N3CCCC(NS(N)(=O)=O)C3)cc2)nc2sccc12` (stereo unspecified), the pEC50 is 5.63.
On the same count and under the same terms, to `Cc1cc(/C=C/C#N)cc(C)c1Oc1nc(Nc2ccc(CN3CCN(S(C)(=O)=O)CC3)cc2)nc2ccsc12` belongs 5.81.
On the same count and under the same terms, to `Cc1cc(/C=C/C#N)cc(C)c1Oc1nc(Nc2ccc(N3CCN(S(N)(=O)=O)CC3)cc2)nc2ccsc12` belongs 6.12.
As to `Cc1cc(/C=C/C#N)cc(C)c1Oc1nc(Nc2ccc(N3CCCC(NS(C)(=O)=O)C3)cc2)nc2ccsc12` (stereo unspecified), the negative-log EC50 (pEC50) was 5.17.
With `Cc1cc(/C=C/C#N)cc(C)c1Oc1nc(Nc2ccc(N3CCN(S(N)(=O)=O)CC3)cc2)nc2sccc12`, the pEC50 is 6.39.
As to `Cc1cc(/C=C/C#N)cc(C)c1Oc1nc(Nc2ccc(N3CCCC(NS(C)(=O)=O)C3)cc2)nc2sccc12` (stereo unspecified), the pEC50 is 5.07.
Still for that read-out and setting: the value for `Cc1cc(/C=C/C#N)cc(C)c1Oc1nc(Nc2ccc(CN3CCN(S(N)(=O)=O)CC3)cc2)nc2sccc12` was 7.82.
The same measure, in the same setting: the value for `Cc1cc(/C=C/C#N)cc(C)c1Oc1nc(Nc2ccc(N3CCN(S(C)(=O)=O)CC3)cc2)nc2sccc12` was 5.48; that for `Cc1cc(/C=C/C#N)cc(C)c1Oc1nc(Nc2ccc(CN3CCN(S(N)(=O)=O)CC3)cc2)nc2ccsc12` was 7.37; that for `Cc1cc(/C=C/C#N)cc(C)c1Oc1nc(Nc2ccc(N3CCN(S(C)(=O)=O)CC3)cc2)nc2ccsc12` was 6.03.
Consider `Cc1cc(/C=C/C#N)cc(C)c1Oc1nc(Nc2ccc(N3CCCC(NS(N)(=O)=O)C3)cc2)nc2ccsc12` (stereo unspecified), for which the negative logarithm of the EC50 (pEC50) is 5.78.
The same measure, in the same setting: to `Cc1cc(/C=C/C#N)cc(C)c1Oc1nc(Nc2ccc(CN3CCN(S(C)(=O)=O)CC3)cc2)nc2sccc12` belongs 6.41.

A further test is described as follows: Inhibition of reverse transcriptase K103N mutant in HIV-1 infected in human MT4 cells assessed as reduction in virus-induced cytopathic effect incubated for 5 days by MTT assay.
On to `Cc1cc(/C=C/C#N)cc(C)c1Oc1nc(Nc2ccc(N3CCCC(NS(N)(=O)=O)C3)cc2)nc2sccc12` (stereo unspecified), for which the negative logarithm of the EC50 (pEC50) was 6.35.
On the same count and under the same terms, to `Cc1cc(/C=C/C#N)cc(C)c1Oc1nc(Nc2ccc(CN3CCN(S(C)(=O)=O)CC3)cc2)nc2ccsc12` belongs 6.45.
The same measure, in the same setting: to `Cc1cc(/C=C/C#N)cc(C)c1Oc1nc(Nc2ccc(N3CCN(S(N)(=O)=O)CC3)cc2)nc2ccsc12` belongs 7.68; to `Cc1cc(/C=C/C#N)cc(C)c1Oc1nc(Nc2ccc(N3CCN(S(N)(=O)=O)CC3)cc2)nc2sccc12`, 7.51; to `Cc1cc(/C=C/C#N)cc(C)c1Oc1nc(Nc2ccc(N3CCCC(NS(C)(=O)=O)C3)cc2)nc2sccc12` (stereo unspecified), 5.87.
As for `Cc1cc(/C=C/C#N)cc(C)c1Oc1nc(Nc2ccc(CN3CCN(S(N)(=O)=O)CC3)cc2)nc2sccc12`, the negative-log EC50 (pEC50) is 8.15.
In the case of `Cc1cc(/C=C/C#N)cc(C)c1Oc1nc(Nc2ccc(N3CCN(S(C)(=O)=O)CC3)cc2)nc2sccc12`, the negative-log EC50 (pEC50) was 6.66.
Still for that read-out and setting: the value for `Cc1cc(/C=C/C#N)cc(C)c1Oc1nc(Nc2ccc(N3CCN(S(C)(=O)=O)CC3)cc2)nc2ccsc12` was 7.25; that for `Cc1cc(/C=C/C#N)cc(C)c1Oc1nc(Nc2ccc(N3CCCC(NS(N)(=O)=O)C3)cc2)nc2ccsc12` (stereo unspecified) was 6.99.
On the same count and under the same terms, to `Cc1cc(/C=C/C#N)cc(C)c1Oc1nc(Nc2ccc(CN3CCN(S(C)(=O)=O)CC3)cc2)nc2sccc12` belongs 7.27.

A short description of another test: Inhibition of reverse transcriptase Y188L mutant in HIV-1 infected in human MT4 cells assessed as reduction in virus-induced cytopathic effect incubated for 5 days by MTT assay.
On to `Cc1cc(/C=C/C#N)cc(C)c1Oc1nc(Nc2ccc(N3CCCC(NS(N)(=O)=O)C3)cc2)nc2sccc12` (stereo unspecified), for which the negative logarithm of the EC50 (pEC50) was 4.05.
With `Cc1cc(/C=C/C#N)cc(C)c1Oc1nc(Nc2ccc(CN3CCN(S(C)(=O)=O)CC3)cc2)nc2ccsc12`, the pEC50 was less than 4.68.
On the same count and under the same terms, to `Cc1cc(/C=C/C#N)cc(C)c1Oc1nc(Nc2ccc(N3CCN(S(N)(=O)=O)CC3)cc2)nc2ccsc12` belongs 4.64; to `Cc1cc(/C=C/C#N)cc(C)c1Oc1nc(Nc2ccc(N3CCCC(NS(C)(=O)=O)C3)cc2)nc2ccsc12` (stereo unspecified), 3.82.
The same measure, in the same setting: the value for `Cc1cc(/C=C/C#N)cc(C)c1Oc1nc(Nc2ccc(N3CCN(S(N)(=O)=O)CC3)cc2)nc2sccc12` was 4.99; that for `Cc1cc(/C=C/C#N)cc(C)c1Oc1nc(Nc2ccc(CN3CCN(S(N)(=O)=O)CC3)cc2)nc2sccc12` was 6.06.
Still for that read-out and setting: the value for `Cc1cc(/C=C/C#N)cc(C)c1Oc1nc(Nc2ccc(N3CCN(S(C)(=O)=O)CC3)cc2)nc2sccc12` was 4.16; that for `Cc1cc(/C=C/C#N)cc(C)c1Oc1nc(Nc2ccc(CN3CCN(S(N)(=O)=O)CC3)cc2)nc2ccsc12` was 6.26.
As to `Cc1cc(/C=C/C#N)cc(C)c1Oc1nc(Nc2ccc(N3CCN(S(C)(=O)=O)CC3)cc2)nc2ccsc12`, the pEC50 was 5.29.
Still for that read-out and setting: the value for `Cc1cc(/C=C/C#N)cc(C)c1Oc1nc(Nc2ccc(N3CCCC(NS(N)(=O)=O)C3)cc2)nc2ccsc12` (stereo unspecified) was 5.17; that for `Cc1cc(/C=C/C#N)cc(C)c1Oc1nc(Nc2ccc(CN3CCN(S(C)(=O)=O)CC3)cc2)nc2sccc12` was 5.03.

A short description of the next test: Inhibition of reverse transcriptase E138K mutant in HIV-1 infected in human MT4 cells assessed as reduction in virus-induced cytopathic effect incubated for 5 days by MTT assay.
For `Cc1cc(/C=C/C#N)cc(C)c1Oc1nc(Nc2ccc(N3CCCC(NS(N)(=O)=O)C3)cc2)nc2sccc12` (stereo unspecified), the pEC50 is 6.21.
The same measure, in the same setting: to `Cc1cc(/C=C/C#N)cc(C)c1Oc1nc(Nc2ccc(CN3CCN(S(C)(=O)=O)CC3)cc2)nc2ccsc12` belongs 6.01.
The same measure, in the same setting: to `Cc1cc(/C=C/C#N)cc(C)c1Oc1nc(Nc2ccc(N3CCN(S(N)(=O)=O)CC3)cc2)nc2ccsc12` belongs 7.37.
Regarding `Cc1cc(/C=C/C#N)cc(C)c1Oc1nc(Nc2ccc(N3CCCC(NS(C)(=O)=O)C3)cc2)nc2ccsc12` (stereo unspecified), the pEC50 was 5.89.
On the same count and under the same terms, the value for `Cc1cc(/C=C/C#N)cc(C)c1Oc1nc(Nc2ccc(N3CCN(S(N)(=O)=O)CC3)cc2)nc2sccc12` was 7.30.
For the molecule `Cc1cc(/C=C/C#N)cc(C)c1Oc1nc(Nc2ccc(N3CCCC(NS(C)(=O)=O)C3)cc2)nc2sccc12` (stereo unspecified), the pEC50 is 5.37.
Take `Cc1cc(/C=C/C#N)cc(C)c1Oc1nc(Nc2ccc(CN3CCN(S(N)(=O)=O)CC3)cc2)nc2sccc12`: the negative logarithm of the EC50 (pEC50) was 7.60.
Same read-out and setting: the value for `Cc1cc(/C=C/C#N)cc(C)c1Oc1nc(Nc2ccc(N3CCN(S(C)(=O)=O)CC3)cc2)nc2sccc12` was 6.39; that for `Cc1cc(/C=C/C#N)cc(C)c1Oc1nc(Nc2ccc(CN3CCN(S(N)(=O)=O)CC3)cc2)nc2ccsc12` was 7.59; that for `Cc1cc(/C=C/C#N)cc(C)c1Oc1nc(Nc2ccc(N3CCN(S(C)(=O)=O)CC3)cc2)nc2ccsc12` was 7.06.
The same measure, in the same setting: the value for `Cc1cc(/C=C/C#N)cc(C)c1Oc1nc(Nc2ccc(N3CCCC(NS(N)(=O)=O)C3)cc2)nc2ccsc12` (stereo unspecified) was 6.91; that for `Cc1cc(/C=C/C#N)cc(C)c1Oc1nc(Nc2ccc(CN3CCN(S(C)(=O)=O)CC3)cc2)nc2sccc12` was 6.79.

A further test can be described thus: Inhibition of reverse transcriptase F227L/V106A double mutant in HIV-1 infected in human MT4 cells assessed as reduction in virus-induced cytopathic effect incubated for 5 days by MTT assay.
Turning to `Cc1cc(/C=C/C#N)cc(C)c1Oc1nc(Nc2ccc(N3CCCC(NS(N)(=O)=O)C3)cc2)nc2sccc12` (stereo unspecified), the pEC50 was 5.44.
`Cc1cc(/C=C/C#N)cc(C)c1Oc1nc(Nc2ccc(CN3CCN(S(C)(=O)=O)CC3)cc2)nc2ccsc12`: the pEC50 is 5.66.
The same measure, in the same setting: to `Cc1cc(/C=C/C#N)cc(C)c1Oc1nc(Nc2ccc(N3CCN(S(N)(=O)=O)CC3)cc2)nc2ccsc12` belongs 6.69; to `Cc1cc(/C=C/C#N)cc(C)c1Oc1nc(Nc2ccc(N3CCCC(NS(C)(=O)=O)C3)cc2)nc2ccsc12` (stereo unspecified), 4.78.
On to `Cc1cc(/C=C/C#N)cc(C)c1Oc1nc(Nc2ccc(N3CCN(S(N)(=O)=O)CC3)cc2)nc2sccc12`, for which the negative logarithm of the EC50 (pEC50) is 6.48.
As to `Cc1cc(/C=C/C#N)cc(C)c1Oc1nc(Nc2ccc(CN3CCN(S(N)(=O)=O)CC3)cc2)nc2sccc12`, the pEC50 is 6.43.
Regarding `Cc1cc(/C=C/C#N)cc(C)c1Oc1nc(Nc2ccc(N3CCN(S(C)(=O)=O)CC3)cc2)nc2sccc12`, the negative logarithm of the EC50 (pEC50) is 5.71.
As for `Cc1cc(/C=C/C#N)cc(C)c1Oc1nc(Nc2ccc(CN3CCN(S(N)(=O)=O)CC3)cc2)nc2ccsc12`, the pEC50 is 6.76.
Same read-out and setting: to `Cc1cc(/C=C/C#N)cc(C)c1Oc1nc(Nc2ccc(N3CCN(S(C)(=O)=O)CC3)cc2)nc2ccsc12` belongs 6.55; to `Cc1cc(/C=C/C#N)cc(C)c1Oc1nc(Nc2ccc(N3CCCC(NS(N)(=O)=O)C3)cc2)nc2ccsc12` (stereo unspecified), 6.42.
Take `Cc1cc(/C=C/C#N)cc(C)c1Oc1nc(Nc2ccc(CN3CCN(S(C)(=O)=O)CC3)cc2)nc2sccc12`: the negative logarithm of the EC50 (pEC50) was 5.79.
